Consider six molecules from EP0252983B1, “SALTS OF N-(VINYLOXIETHYL)DITHIOCARBAMIC ACID, METHOD OF OBTAINING THEREOF AND […] ON THEM” (priority 1985, dated 1987).

One data set relates to Aspergillus niger. Put plainly: Mycelial growth inhibition on agar (contact activity). Format: cell-based.
The next data set relates to Paecilomyces varioti. Described as above. The format is cell-based. As to conditions: Paecilomyces, 120 h, Wirkstoffkonzentration 0,003 %. As for the experimental part: (§1) Die Prüfungen werden nach dem Verfahren zur Ermittlung der Kontaktaktivität durchgeführt. Man verwendet das in Wasser gelöste Kalium-N-(vinyloxyäthyl)dithiocarbamat, führt es in ein Nährmedium ein und vergießt auf Petri-Schalen. Nach 24 Stunden wird mit Pilzmyzelium nach einem Stichverfahren geimpft. Dann temperiert man die Schalen innerhalb von 5 Tagen bei einer zwischen 24 und 26 °C liegenden Temperatur und mißt den Durchmesser von Pilzkolonien, ermittelt den Prozentsatz der Hemmung des Myzelwachstums (S) ausgehend von Angaben am 5. Tag nach der Abbott-Formel [drawing 13] worin dc für den Durchmesser der Pilzkolonien, de für den Durchmesser von Pilzkolonien in der Schale stehen, wo ein die zu prüfenden Stoffe enthaltendes Medium vorhanden ist. Dieses Verfahren zur Ermittlung der mikrobiologischen Aktivität ist in anderen Beispielen verwendet.

Another data set relates to Stereum hirsutum. The description is as above. Format: cell-based. The note with it: Stereum hirsutum, 120 h, Wirkstoffkonzentration 0,003 %. As for the experimental part: as §1
Another data set deals with Penicillium funiculosum. The description is as above. The note with it: Talaromyces funiculosus, 120 h, Wirkstoffkonzentration 0,003 %. Format: cell-based. How it is done:
as §1

For a further data set, the system named is Wurzelfäule von Gurken. In words: Cucumber root rot test in treated non-sterile soil. The format is in vivo. The note with it: 200 kg/ha Wirkstoff. An excerpt: Man nimmt 100 g unsterilen Boden, enthaltend 1 Teil Humus, 1 Teil Rasenboden, 1 Teil Sand, gibt darin ein Präparat, das Zink-bis-(N-vinyloxyäthyldithiocarbamat) ausgehend von 200 kg/ha Wirkstoff enthält.
Das Präparat wird wie folgt hergestellt: Einer gesättigten Lösung des genannten Salzes in Azeton gibt man einige Tropfen Emulgiermittel (hydroxyäthylierte Alkylphenole) zu und verdünnt mit Wasser. Innerhalb von 7 bis 8 Tagen begießt man dann bodenhaltige Gefäße mit Wasser, bis der Boden in einen Zustand gebracht wird, der 60% der vollen Wasseraufnahmekapazität des Feldes beträgt. Nach dieser Zeit erfolgt die Aussaat von Gurkensamen, eingequollen im voraus in einer 0,1%igen KMn04-Lösung innerhalb von 2 Stunden. In jedes Gefäß werden je 10 Samen auf eine Tiefe von 1 bis 1,5 cm gesät. Nach 7 bis 9 Tagen berücksichtigt man die Keimungsfähigkeit von Samen, dann bestimmt man nach 3 Tagen den Befallumfang von Pflanzen durch Wurzelfäule, hervorgerufen durch einen Erregerkomplex. Die Versuche werden viermal wiederholt, als Vergleichsmuster dient Milon. Die Prüfergebnisse zeigt Tabelle 9.

In another data set the test system is Fusarium oxysporum. In words: Soil fungicide test (fungal discs in treated soil). The format is cell-based. More on the design: key: Das Vorhandensein (+); das Fehlen (-) des wachsenden Myzels um die Scheibe herum. The note with it: 160 mg/kg Boden. How it is done: (§2) Eine 50 g schwere Bodenprobe bringt man in ein Glasgefäß ein, sterilisiert innerhalb von 2 Stunden unter einem Druck von 2 atm, gibt dann dem Boden das Präparat als wäßrige Lösung ausgehend von 160 mg/kg zu, wonach in den Boden Scheiben mit Kulturen folgender Pilze Fusarium oxysporum, Verticillium dahliae, Rhizoctonia solani, Pythium ultimum untergebracht werden.
(§3) Nach 24 und 48 Stunden werden die Scheiben in fließendem Wasser, dann in sterilem Wasser gewaschen, auf sterilem Filterpapier getrocknet und auf eine reine Agarplatte gelegt. Das Vorhandensein (+) oder das Fehlen (-) des wachsenden Myzels um die Scheibe herum wies auf die Wirksamkeit des Präparats. Als Vergleichsmuster diente dabei Karbathion. Die Prüfergebnisse sind in der Tabelle 5 dargestellt.

For a further data set, the system named is Pythium ultimum. Put plainly: Soil fungicide test (fungal discs in treated soil). The format is cell-based. More on the design: key: Das Vorhandensein (+); das Fehlen (-) des wachsenden Myzels um die Scheibe herum. As to conditions: 160 mg/kg Boden. As for the experimental part:
as §2, §3

Data set [1] concerns Rhizoctonia solani. Put plainly: Soil fungicide test (fungal discs in treated soil). As to conditions: 160 mg/kg Boden. On the set-up: key: Das Vorhandensein (+); das Fehlen (-) des wachsenden Myzels um die Scheibe herum. The format is cell-based. As for the experimental part:
as §2, §3

Data set [2] has as its system Verticillium dahliae. Put plainly: Soil fungicide test (fungal discs in treated soil). On the set-up: key: Das Vorhandensein (+); das Fehlen (-) des wachsenden Myzels um die Scheibe herum. The note with it: 160 mg/kg Boden. The format is cell-based. As for the experimental part: as §2, §3
In data set [3] the test system is Rhizoctonia solani. In words: Mycelial growth inhibition on agar (contact activity). Format: cell-based. As to conditions: Rhizoctonia solani, 120 h; Wirkstoffkonzentration 0,003 %; Würzeagar; Tabelle 7; read-out: Myzelhemmung in %. As for the experimental part: as §1
Die fungizide Aktivität von Zink-bis-(N-vinyloxyäthyldithiocarbamat) gegen reine Kulturen von Pilzen Fusarium moniliforme, Fusarium sambucinum, Aspergillus niger, Rhizoctonia solani, Cladosporium resinae, Cladosporium cladosporioides, Acremonium cowum, Acremonium charticola, Penicillium chrysogenum, Penicillium charlesii Smith, Penicillium funiculosum, Geotrichum candidum Link, Walrotiela subiculesa, Oidium sp., Paecilomyces varioti, Stereum hirsutum wird gemäß Beispiel 8 untersucht.
(§4) Als Nährmedium dient Würzeagar.

In a further data set the test system is Sphaeropsis malorum. The data set is described as above. The note with it: 120 h; Wirkstoffkonzentration 0,003 %; Würzeagar; Tabelle 7; read-out: Myzelhemmung in %. Format: cell-based. How it is done:
as §1, §4

In the next data set the test system is Venturia inaegualis. The data set is described as above. Format: cell-based. As to conditions: 120 h, Kartoffel-Glukose-Nährmedium, read-out: Myzelhemmung in %. How it is done: as §1
(§5) Tabelle 2 zeigt die Angaben für die fungizide Aktivität von Kalium-N-(vinyloxyäthyl)dithiocarbamat und bekannten wirksamen Fungiziden Poly arbazin und TMTD. Der zu prüfende Stoff wurde im Laufe der Versuche in Wasser aufgelöst, und die Kulturen wurden auf einem Kartoffel-Glukose-Nährmedium gezüchtet.

The subject of another data set is Fusarium sambucinum. The data set is described as above. Format: cell-based. As for the experimental part:
as §1, §5

Another data set deals with Botrytis cinerea. Described as above. The format is cell-based. The note with it: 120 h, Kartoffel-Glukose-Nährmedium, read-out: Myzelhemmung in %. How it is done:
as §1, §5

Another data set has as its system Fusarium moniliforme. Described as above. Format: cell-based. How it is done: as §1, §5
Data set [4] deals with Verticillium dahliae. The description is as above. Format: cell-based. The note with it: 120 h, Kartoffel-Glukose-Nährmedium, read-out: Myzelhemmung in %. How it is done: as §1, §5
The next data set has as its system Chaetomium globosum. The data set is described as above. Format: cell-based. As to conditions: Chaetomium globosum, 120 h; Wirkstoffkonzentration 0,003 %; Tabelle 3; read-out: Mycelhemmung, in %. As for the experimental part:
as §1

The next data set has as its system Larven von Fichtenböcken. Put plainly: Insecticidal activity, topical application to larvae. The format is in vivo, Fichtenböcke. The note with it: 10%ige Lösung. An excerpt: Die hohe insektizide Aktivität von Kalium-N-(vinyloxyathyl)dithiocarbamat und Zink-bis-(N-vinyloxyathyl- dithiocarbamat) wurde in Versuchen an Larven von Fichtenböcken nachgewiesen. Geprüft wurden die 10%igen wäßrigen (oder alkoholischen) Lösungen, welche auf die Kopfbrust von Larven aufgebracht wurden. In Versuchen standen je 20 Larven zur Verfügung. Die Versuche wurden dreimal wiederholt. Die Mortalität wurde nach 1, 24 und 48 Stunden ermittelt. Die insektizide Aktivität der erfindungsgemäßen Stoffe ist bedeutend höher als die von Chlorophos.
Die Prüfungen auf insektizide Aktivität werden an Larven von Fichtenböcken durchgeführt. Geprüft werden eine 10%ige wäßrige Lösung von Kalium-N-(vinyloxyäthyl)dithiocarbamat und eine 10%ige alkoholische Lösung von Zink-bis-N-(vinyloxyathyldithiocarbamat). In jedem Versuch stehen je 20 Larven zur Verfügung. Die Mortalität wird nach 1, 24 und 48 Stunden ermittelt. Die zu prüfenden Lösungen werden auf die Kopfbrust von Larven aufgebracht.

For a further data set, the system named is Psoroptes cuniculi. Put plainly: Acaricidal activity on isolated mites. The format is in vivo. How it is done: Die akarizide Aktivität der Stoffe wird an isolierten Milben Psoroptes cuniculi als Erreger der Psoroptesräude bei Kaninchen geprüft. Von frischen Verkrustungen von Kaninchen mit Psoroptesräude, werden zu diesem Zweck 50 Milbenexemplare (Larven, Nymphen, Imago) gewählt und in Petri-Schalen auf ein Filterpapierblatt übertragen. Dann bringt man auf Milben und die ganze Blattoberfläche 1,5 ml zu prüfende wäßrige Stofflösung in destilliertem Wasser auf. Die Schale wird mit Deckel verschlossen und in einen Thermostat bei 30 °C und Feuchtegehalt von 90 % angeordnet. Der Wirkstoff wird als wäßrige Lösung mit einer zwischen 0,0039 und 4 % liegenden Konzentration genommen. Als Vergleichsmuster dient gleichzeitig eine wäßrige Lösung von Chlorophos. Milben werden im Kontrollversuch (Kontrolle auf Lebensfähigkeit)mit 1,5 ml physiologischer Lösung behandelt und in einen anderen Thermostat unter gleichen Temperatur- und Feuchtigkeitsbedingungen aufgestellt.
Nach 1, 2, 4, 6 Stunden und alle 24 Stunden betrachtet man die Milben im Mikroskop und zählt die toten Milben. Aufgrund der Milbenvernichtung durch einen 24-stündigen Kontakt mit dem Wirkstoff ermittelt man die LK-50 Werte. Die Versuche werden 5mal wiederholt. Arithmetische Mittelwerte gibt Tabelle 14 an.

Where [5] appears, read: Würzeagar, Tabelle 8, read-out: Myzelhemmung in %.
[6] abbreviates: Wirkstoffkonzentration 0,003 %, Würzeagar, Tabelle 7.
Setting [7] is: Tabelle 3, read-out: Mycelhemmung, in %.

Where two headings read alike, the source gives them in different places.

As for `Oc1c(Cl)c(Cl)c(Cl)c(Cl)c1Cl` [Pentachlorphenol, reference compound], the inhibition of growth at 0.003 % with Aspergillus niger (Aspergillus niger, 120 h, Wirkstoffkonzentration 0,003 %, Würzeagar, Tabelle 8, read-out: Myzelhemmung in %) worked out at 100%; with Paecilomyces varioti (setting [5]) it was 100%; with Stereum hirsutum (setting [5]) it was 100%; in the data set on Penicillium funiculosum (setting [5]) it was 100%.
Regarding `CN1CSC(=S)N(C)C1` [Milon, 3,5-Dimethyltetrahydro-1,3,5-thiadizin-1-thion-2, reference compound], the Keimungshäufigkeit in % in the data set on Wurzelfäule von Gurken (Gurkensamen) was 70,3%. Moreover, the “Entwicklung von Krankheiten in %” value with Wurzelfäule von Gurken (Wurzelfäule von Gurken) was 0%.
`CNC(=S)[S-].[Na+]` [Karbathion, reference compound]: the “wachsendes Myzel um die Scheibe” value in the data set on Fusarium oxysporum (Haltedauer 24 Stunden), in the data set with Fusarium oxysporum (Haltedauer 48 Stunden), in the data set with Pythium ultimum (Haltedauer 24 Stunden), in the data set on Pythium ultimum (Haltedauer 48 Stunden), in the data set with Rhizoctonia solani [1] (Haltedauer 24 Stunden) and with Rhizoctonia solani [1] (Haltedauer 48 Stunden) was “-” throughout. The “wachsendes Myzel um die Scheibe” value in the data set with Verticillium dahliae [2] (Haltedauer 24 Stunden) and in the data set with Verticillium dahliae [2] (Haltedauer 48 Stunden) was “-” throughout.
For `CN(C)C(=S)SSC(=S)N(C)C` [TMTD, Tetramethylthiuramdisulfid, reference compound], the inhibition of growth at 0.003 % was found to be 100% with Rhizoctonia solani [3]; 100% in the data set on Aspergillus niger (Aspergillus niger, 120 h, Wirkstoffkonzentration 0,003 %, Kartoffel-Glukose-Nährmedium, read-out: Myzelhemmung in %); 100% in the data set on Sphaeropsis malorum; 100% with Venturia inaegualis (Wirkstoffkonzentration 0,003 %); 100% in the data set with Fusarium sambucinum (Fusarium sambucinum, 120 h, Wirkstoffkonzentration 0,003 %, Kartoffel-Glukose-Nährmedium, read-out: Myzelhemmung in %); 100% with Botrytis cinerea (Wirkstoffkonzentration 0,003 %). Also, the inhibition of growth at 0.003 % turned out to be 100% in the data set on Fusarium moniliforme (Fusarium verticillioides, 120 h, Wirkstoffkonzentration 0,003 %, Kartoffel-Glukose-Nährmedium, read-out: Myzelhemmung in %) and 100% in the data set with Verticillium dahliae [4] (Wirkstoffkonzentration 0,003 %). Also, the inhibition of growth at 0.01 % with Aspergillus niger (Aspergillus niger, 120 h, Wirkstoffkonzentration 0,01 %, Kartoffel-Glukose-Nährmedium, read-out: Myzelhemmung in %) is 100%; in the data set with Venturia inaegualis (Wirkstoffkonzentration 0,01 %), 100%; in the data set on Fusarium sambucinum (Fusarium sambucinum, 120 h, Wirkstoffkonzentration 0,01 %, Kartoffel-Glukose-Nährmedium, read-out: Myzelhemmung in %) it was 100%; in the data set on Botrytis cinerea (Wirkstoffkonzentration 0,01 %), 100%; in the data set with Fusarium moniliforme (Fusarium verticillioides, 120 h, Wirkstoffkonzentration 0,01 %, Kartoffel-Glukose-Nährmedium, read-out: Myzelhemmung in %), 100%; with Verticillium dahliae [4] (Wirkstoffkonzentration 0,01 %), 100%. The Myzelhemmung in % in the data set with Aspergillus niger (setting [6]), with Fusarium sambucinum (setting [6]) and with Fusarium moniliforme (setting [6]) was 100% in each case.
In the case of `O=C(Nc1ccccc1)c1ccccc1O` [Salizylanilid, reference compound], the inhibition of growth at 0.003 % in the data set with Aspergillus niger (Aspergillus niger, 120 h, Wirkstoffkonzentration 0,003 %, Tabelle 3, read-out: Mycelhemmung, in %) came out at 100%; in the data set with Paecilomyces varioti (setting [7]), 100%; with Stereum hirsutum (setting [7]), 100%; in the data set with Penicillium funiculosum (setting [7]), 100%; with Chaetomium globosum, 100%.
As to `COP(=O)(OC)C(O)C(Cl)(Cl)Cl` (stereo not drawn) [Chlorophos, O,O-Dimethyl-(1-oxy-2,2,2-trichloräthyl)phosphonat, reference compound], the “Mortalität von Larven der Fichtenböcke” value came out at 0% in the data set with Larven von Fichtenböcken (Wirkungsdauer 1 Stunde), 20% in the data set with Larven von Fichtenböcken (Wirkungsdauer 24 Stunden) and 57% in the data set on Larven von Fichtenböcken (Wirkungsdauer 48 Stunden). Further, the LK-50 % in the data set with Psoroptes cuniculi (24-stündiger Kontakt mit dem Wirkstoff) is reported as 0,8%. In addition, the figures for the “Vernichtung von 100 % der Milben nach Stunden” value with Psoroptes cuniculi (Konzentration 0,5 bis 1,0 %) and with Psoroptes cuniculi (Konzentration 0,25 %) were 48 Stunden and 72 Stunden, respectively.
